Experiment in all cases: NCI anticancer screen, dose series, 48 h
The test system of experiment [1] is NCI-H226.
For experiment [2], the system named is SNB-19.
Experiment [3] relates to RPMI-8226.
Experiment [4] has as its system OVCAR-4.
Experiment [5] has as its system HCT-116.
The test system of experiment [6] is U-251.
The subject of experiment [7] is SR.
Experiment [8] relates to SNB-75.
Experiment [9] relates to EKVX.
Experiment [10] has as its system UO-31.
Experiment [11] deals with LOX IMVI.
Experiment [12] has as its system SK-MEL-5.
Experiment [13] relates to OVCAR-5.
The test system of experiment [14] is RXF 393.
Experiment [15] deals with NCI/ADR-RES.
The test system of experiment [16] is CCRF-CEM.
The subject of experiment [17] is SF-539.
The test system of experiment [18] is HCC 2998.

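A five-concentration, 48-hour dose response in 96-well plates underlies each endpoint, interpolated linearly between surrounding concentrations. GI50 is the concentration that inhibits growth by half.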 Activity calls are given as the source filed them. Cut-off read from the data, not from the text of the source: active = GI50 up to about 1.1 µM and inactive = higher.

This note sets out measurements from ChEMBL document CHEMBL1201862, “PubChem BioAssay data set” (2004).

As to `CCC1c2[nH]c3ccccc3c2C[C@H]2C(=O)NC(COC(C)(C)C)C(=O)N12` (some centres undefined), the GI50 in experiment [1] was > 100 µM (inactive); in experiment [2], 49.1 µM (inactive); in experiment [3] it was 32.4 µM (inactive); in [4], 39.1 µM (inactive); in experiment [5], 41.6 µM (inactive); in experiment [6], 40.7 µM (inactive). The GI50 is 31.3 µM (inactive) in [7]; 19.8 µM (inactive) in [8]; 45.2 µM (inactive) in experiment [9]; 38.2 µM (inactive) in [10]; 37.3 µM (inactive) in experiment [11]; 27.8 µM (inactive) in experiment [12]. The values for the GI50 in experiment [13], in experiment [14] and in experiment [15] were 47.3 µM (inactive), 55.5 µM (inactive) and 40.7 µM (inactive), respectively.
Regarding `COc1ccc2cc(C(=O)CCC(=O)O)ccc2c1`, the GI50 in experiment [1], in experiment [2], in experiment [3], in experiment [4], in [5] and in experiment [6] was > 100 µM (inactive) throughout. Besides, the GI50 is > 100 µM (inactive) in experiment [7]; > 100 µM (inactive) in [16]; 50.1 µM (inactive) in experiment [8]; > 100 µM (inactive) in experiment [9]; > 100 µM (inactive) in experiment [10]; > 100 µM (inactive) in [11]. In addition, the GI50 in experiment [12], in [13], in [14], in [15] and in [17] was > 100 µM (inactive) in each case.
Regarding `CC(C)C(=O)[C@@]1(C)SC[C@H]2CCN=C21`, the GI50 in experiment [1] is > 100 µM (inactive); in [2] it was > 100 µM (inactive); in experiment [3] it was > 100 µM (inactive); in experiment [4], 74.6 µM (inactive); in [5], > 100 µM (inactive); in [7] it was 56.8 µM (inactive). Moreover, the GI50 is > 100 µM (inactive) in [16]; > 100 µM (inactive) in [9]; 58.6 µM (inactive) in experiment [10]; > 100 µM (inactive) in [11]; > 100 µM (inactive) in experiment [12]; > 100 µM (inactive) in experiment [13]. For the same molecule, the GI50 in experiment [14] was 3.52 µM (inactive); in [15] it was > 100 µM (inactive); in [17], > 100 µM (inactive); in experiment [18] it was > 100 µM (inactive).
Take `COc1ccc2c(c1)c(=O)c1c(NCCN(C)C)ccc3c(=O)n(CCN(C)C)c(=O)n2c31`: the GI50 in [1] is 0.163 µM (active); in experiment [2], 0.206 µM (active); in experiment [3], 0.0323 µM (active); in [4], 0.101 µM (active); in experiment [5], < 0.014 µM (active); in experiment [6], 0.0783 µM (active). In addition, the GI50 is < 0.01 µM (active) in experiment [7]; < 0.01 µM (active) in experiment [16]; 0.173 µM (active) in experiment [8]; 0.124 µM (active) in experiment [9]; 0.163 µM (active) in experiment [10]; 0.104 µM (active) in experiment [11]. The GI50 in [12] is 0.126 µM (active); in experiment [13], 0.254 µM (active); in experiment [15], 0.109 µM (active); in [17], 0.0376 µM (active); in experiment [18], 0.0247 µM (active).
Regarding `N[C@H]1CCc2c1nc1c(c2-c2ccccc2)CC[C@@H]1N`, the GI50 was 33.6 µM (inactive) in experiment [1]; 82.8 µM (inactive) in [2]; 34.4 µM (inactive) in experiment [3]; 50.8 µM (inactive) in experiment [4]; 18.1 µM (inactive) in experiment [5]; 20.5 µM (inactive) in experiment [6]. Besides, the GI50 is 31.5 µM (inactive) in experiment [7]; 17.6 µM (inactive) in experiment [16]; 11.9 µM (inactive) in experiment [8]; > 100 µM (inactive) in experiment [9]; 14 µM (inactive) in experiment [11]; 15.9 µM (inactive) in experiment [12]. The GI50 in experiment [13] was 18.3 µM (inactive); in experiment [15] it was 46.9 µM (inactive); in experiment [17] it was 16.1 µM (inactive); in experiment [18], 21.4 µM (inactive).
For the molecule `O=c1[nH]ncc2[nH]c3c4ccccc4ccc3c12`, the GI50 in experiment [3] is 38.5 µM (inactive); in [4] it was 44.5 µM (inactive); in experiment [5], 42.2 µM (inactive); in experiment [6], 24.8 µM (inactive); in experiment [7], 31.3 µM (inactive); in experiment [16] it was 46.3 µM (inactive). Moreover, the GI50 in [9] was 10.8 µM (inactive); in [10], 25.5 µM (inactive); in [11], 25.4 µM (inactive); in [12], 28.1 µM (inactive); in [13], 39.9 µM (inactive); in experiment [14], 46.2 µM (inactive). Besides, the values for the GI50 in [15], in experiment [17] and in experiment [18] were > 100 µM (inactive), 50.1 µM (inactive) and 60.1 µM (inactive), respectively.
`Cc1ccc(S(=O)(=O)N(CC(O)COc2ccccc2)c2c(F)c(F)cc(F)c2F)cc1` (centres undefined): the GI50 is 23.1 µM (inactive) in experiment [1]; 27.6 µM (inactive) in [2]; 18.7 µM (inactive) in experiment [3]; 18.7 µM (inactive) in experiment [4]; 37 µM (inactive) in [5]; 21 µM (inactive) in experiment [6]. In addition, the GI50 in experiment [7] is 3.53 µM (inactive); in [16], 33.4 µM (inactive); in experiment [8], 20.5 µM (inactive); in experiment [9] it was 27.9 µM (inactive); in experiment [10], 20.4 µM (inactive); in experiment [11], 16.6 µM (inactive). The GI50 is 15.9 µM (inactive) in experiment [12]; 29 µM (inactive) in experiment [13]; 18.1 µM (inactive) in experiment [15]; 20 µM (inactive) in [17]; 23.6 µM (inactive) in experiment [18].
As for `COc1cccc2c(NNc3ccccc3)c3ccc([N+](=O)[O-])cc3nc12`, the GI50 in [1] is 24.9 µM (inactive); in experiment [2], > 100 µM (inactive); in experiment [3] it was 7.1 µM (inactive); in experiment [4], 42 µM (inactive); in experiment [5], 22.8 µM (inactive); in experiment [6], 21.2 µM (inactive). The GI50 was 18.7 µM (inactive) in [7]; 12.5 µM (inactive) in experiment [16]; 78.2 µM (inactive) in experiment [9]; 8.67 µM (inactive) in [10]; 13.6 µM (inactive) in [11]; 37.6 µM (inactive) in experiment [12]. Moreover, the GI50 was > 100 µM (inactive) in [13]; 48.9 µM (inactive) in [14]; 41.5 µM (inactive) in [15]; 36.4 µM (inactive) in experiment [17]; 32.7 µM (inactive) in experiment [18].
As to `Cc1c(CCCl)c(N=[N+]=[N-])n2c(nc3ccccc32)c1C#N`, the GI50 in experiment [1] is 1.82 µM (inactive); in experiment [2] it was 2.77 µM (inactive); in [3], 0.385 µM (active); in experiment [4], 1.53 µM (inactive); in experiment [5] it was 0.498 µM (active); in [6], 2.17 µM (inactive). The GI50 is 0.311 µM (active) in experiment [7]; 0.236 µM (active) in experiment [16]; 1.46 µM (inactive) in [8]; 1.87 µM (inactive) in experiment [9]; 1.65 µM (inactive) in experiment [10]; 0.902 µM (active) in experiment [11]. The GI50 in experiment [12] was 0.491 µM (active); in experiment [13], 1.94 µM (inactive); in experiment [14], 1.4 µM (inactive); in experiment [15], 1.69 µM (inactive); in experiment [17], 1.82 µM (inactive).
As to `O=S(=O)(O)c1ccc(/N=N\c2c(O)ccc3cc(Br)ccc23)cc1`, the GI50 in experiment [2], in [3], in experiment [4], in experiment [5], in [6] and in experiment [7] was > 100 µM (inactive) in each case. The GI50 in experiment [16], in [8], in experiment [9], in experiment [10], in experiment [11] and in [12] was > 100 µM (inactive) each time. Besides, the GI50 in experiment [13], in experiment [14] and in experiment [15] was > 100 µM (inactive) each time.
In the case of `CC(=O)O[C@H]1C(=O)[C@@]2(C)C(C(OC(=O)c3ccccc3)[C@]3(O)CC(OC(=O)C(O)C(NC(=O)c4ccccc4)c4cccc(Cl)c4)C(C)=C1C3(C)C)[C@]1(OC(C)=O)CO[C@@H]1C[C@@H]2O` (some centres undefined), the GI50 in experiment [1] is > 10 µM (inactive); in experiment [2] it was > 10 µM (inactive); in [3], 2.21 µM (inactive); in experiment [4], > 10 µM (inactive); in experiment [5], 2.88 µM (inactive); in experiment [6], 4.95 µM (inactive). Further, the GI50 in experiment [7] was 1.47 µM (inactive); in experiment [16], 2.62 µM (inactive); in [8], 2.62 µM (inactive); in experiment [9], 7.23 µM (inactive); in [11], 4.29 µM (inactive); in experiment [12], 5.94 µM (inactive). The GI50 was 4.15 µM (inactive) in experiment [13], > 10 µM (inactive) in experiment [15], 3.24 µM (inactive) in [17] and 4.67 µM (inactive) in experiment [18].
`N#Cc1ccc(/C=[N+](/C=c2ccc(=C=[N-])cc2)N(CCO)C2=NCCN2)cc1`: the GI50 in experiment [1], in experiment [2], in experiment [4], in experiment [5], in experiment [6] and in experiment [7] was > 100 µM (inactive) each time. Further, the GI50 in experiment [16], in experiment [8], in experiment [9], in [10], in experiment [11] and in experiment [12] was > 100 µM (inactive) in each case. In addition, the GI50 in experiment [13], in experiment [15], in experiment [17] and in experiment [18] was > 100 µM (inactive) each time.
